Test results: patent US6436631B1, “Comparative phenotype analysis for assessment of biologically active compounds such as antimicrobials” (priority 2000, dated 2002)
Where a SMILES comes first, the peptide text is derived from it.

Key:
Format in all cases: cell-based
[1] = tested on: Saccharomyces cerevisiae (BY4741); assay: EA MicroPlate nutrient stimulation test without methionine (iodo-nitro-tetrazolium violet reduction); details: L-methionine well (25 μM); 30° C., 2 days, visual
Protocol: In this Example, the response of a yeast to various compounds was tested. The yeast used in these experiments was Saccharomyces cerevisiae (BY4741, obtained from Dr. Mark Johnston, Washington University, St. Louis, Mo.). The genotype of this strain was indicated as being Mat a (i.e., mating type “a”), ura-, his-, leu-, and met-. In these experiments, the ability of this strain to grow in a culture medium without methionine was investigated. Methionine interferes with the ability to test this organism for its utilization of other potential sulfur sources (i.e., if methionine is added to a culture medium the organism preferentially uses it as a sulfur source). The yeast was grown for 48 hours at 30° C. on R2A agar medium (Acumedia). Cells were removed from the agar surface with a sterile cotton swab and suspended at a cell density of 65% transmittance (as read using a BiologTM turbidimeter) in an inoculating fluid containing 50 mM glucose, 0.15 mM uracil, 0.15 mM L-histidine, 0.15 mM L-leucine, 0.15 mM MgCl2, 1.0 mM CaCl2, 2.0 mM NaCl, 1.0 mM KCl, 3.0 mM NH4Cl, 1.0 mM NaH2PO4, 0.1 mM Na2SO4, 0.01% iodo-nitro-tetrazolium violet, 0.01% phytagel (gellan gum), 0.03% pluronic F-68; the pH was adjusted to 6.0. The cell suspension (100 μl/well) was then used to inoculate a BiologTM EA MicroPlateTM, which tests the ability of a cell to be stimulated by a set of 95 different nutrients. The nutrients included within the microarray were: […] One well (A-1) contains no nutrients and is used as a reference (i.e., control) well. After inoculation, the microarray was incubated at 30° C. for 2 days and visually observed.

E. coli MG1655 = assay: phenotype microarray (PM) comparative profiling of antimicrobials, S-O-R scoring, distance matrix and dendrogram; details: 7 PMs; for clustering in dendrogram of PM S-O-R response (FIG. 4): 1x level of each antimicrobial (lowest concentration giving detectable inhibition of respiration), 665 phenotypes, 48 hours; for PM response pattern (fingerprint) of cells exposed to the antimicrobial: partially inhibitory concentrations (1x, 2x)
Text: In this Example, experiments are described in which the feasibility of using PMs for analyzing the metabolic effects of antimicrobial compounds and their mechanisms of action were investigated. Specifically, the experiments were designed to determine whether compounds that act via interaction with specific bacterial proteins (“target-specific”) can be distinguished from those acting via non-specific mechanisms, solely on the basis of differences in signature metabolic profiles. In addition, the experiments were designed to determine whether different interactors of the same pathway produce a similar signature profile, as well as whether interactors of different pathways produce distinctly different profiles.
Twenty chemicals were selected for inclusion in these experiments. Fifteen of these, listed below in Table 3 as “single target antimicrobials” are thought to have relatively specific modes of action, whereas five antimicrobials, listed as “multiple target antimicrobials” are thought to have non-specific modes of action.
An initial set of experiments was performed to select the concentrations of each chemical as it was desirable to use a partially inhibitory concentration. A completely inhibitory or sub-inhibitory concentration would not provide any information. Partial inhibitory levels were determined using the criterion of decreased formation of purple color due to inhibition of tetrazolium violet reduction (i.e., respiration). Each compound was tested at two concentrations giving partial inhibition of respiration. The lower concentration, referred to as “1x,” was the lowest concentration giving detectable inhibition of respiration. The higher concentration, referred to as “2x,” was twice the 1x concentration. […] Thus, only 1x and 2x concentrations were used.
In these experiments, E. coli MG1655 was tested against 20 antimicrobials at two concentrations using 7 PMs each, for a total of 280 PMs. […] Since in these experiments each PM contains 95 phenotypes, the total number of phenotypes analyzed here was 26,600. Each PM was monitored kinetically every 15 minutes using a specialized instrument described is U.S. patent application Ser. No. 09/277,353 (herein incorporated by reference) for an incubation duration of 48 hours. Thus, the total number of data points for the experiments was 5,107,200.
The results of the data collected for a run is a kinetic phenotype of the cell exposed to an antimicrobial overlaid and compared against the phenotype of the cell without exposure to the antimicrobial. When the two kinetic tracings of tetrazolium reduction (i.e., cell respiration) overlap, there is no difference in the response to that phenotype (indicated as “O”). When the control tracing exceeds the antimicrobial tracing, the organism is scored as “more sensitive” or “S.” When the antimicrobial tracing exceeds the control tracing, the organism is scored as “more resistant,” or “R.” Based on visual examination of the PMs after incubation, the threshold values for judging S and R results were determined. The software then automatically calculated the areas under the differential tracings and applied threshold values to score all 26,600 phenotypes as S, O, or R.
From the S—O—R data, a distance matrix was generated. The S—O—R response (a string of 665 values) for one antimicrobial was compared to the response for another antimicrobial, and the differences summed up. A difference of O to S or of O to R was assigned a value of 1, and a difference of S to R was assigned a value of 2. The string of 665 differences was then summed up.

E. coli (MG1655) = assay: BAC combination (synergy/antagonism) testing in ES1, ES2 and ES3 MicroPlate sensitivity panels, tetrazolium violet
Protocol: In this Example, the susceptibility of E. coli (MG1655) was tested in the presence of vancomycin (10 μg/ml) or sulfamethoxazole (235 μg/ml) in microarrays containing various additional compounds. The microarrays were present in three Biolog™ sensitivity test panels, referred to as ES1, ES2 and ES3 MicroPlates™. The organisms were added to a sterile aqueous suspension containing 0.40% NaCl, 0.03% pluronic F68, 0.01% phytagel, and 0.01% tetrazolium violet, to a cell density of 85% transmittance (as measured using a BiologTm turbidimeter). The BAC to be tested was added to the suspension just prior to inoculating the organisms (100 μl/well) into the wells of the microarrays. The wells of these ES MicroPlates™ contained a basal broth medium consisting of tryptone (2 g/L), yeast extract (1 g/L), and NaCl (1 g/L). […]

CSCC[C@H](N)C(=O)O [L-methionine]
stimulation of growth/respiration (pink color) in medium without methionine [1]: increased pink color

CC1(C)S[C@@H]2[C@H](NC(=O)[C@H](N)c3ccccc3)C(=O)N2[C@H]1C(=O)O [ampicillin]
clustering in dendrogram of PM S-O-R response (FIG. 4) (E. coli MG1655): cluster

O=[N+]([O-])c1ncc[nH]1 [azomycin]
change of sensitivity of E. coli strain to panel compound (E. coli (MG1655); in the presence of 235 μg/ml sulfamethoxazole, azomycin at 0.2, 0.4, 0.8 and 1.6 μg/ml): increased sensitivity

CC[C@H](C)[C@H](N)C1=N[C@H](C(=O)N[C@@H](CC(C)C)C(=O)N[C@H](CCC(=O)O)C(=O)N[C@H](C(=O)N[C@H]2CCCCNC(=O)[C@H](CC(N)=O)NC(=O)[C@@H](CC(=O)O)NC(=O)[C@H](Cc3cnc[nH]3)NC(=O)[C@@H](Cc3ccccc3)NC(=O)[C@H]([C@@H](C)CC)NC(=O)[C@@H](CCCN)NC2=O)[C@@H](C)CC)CS1 [bacitracin] (HELM PEPTIDE1{[CC[C@H](C)[C@H](N)C1=N[C@H](C(=O)[*:2])CS1].L.[dE].I.K.[NCCC[C@@H](N[*:1])C(=O)[*:2]].I.[dF].H.[dD].N}$PEPTIDE1,PEPTIDE1,5:R3-11:R2$$$V2.0)
clustering in dendrogram of PM S-O-R response (FIG. 4) (E. coli MG1655): cluster

N[C@@H](C(=O)N[C@@H]1C(=O)N2C(C(=O)O)=C(Cl)CS[C@H]12)c1ccccc1 [cefaclor]
change of sensitivity of E. coli strain to panel compound (E. coli (MG1655); in the presence of 235 μg/ml sulfamethoxazole, cefaclor at 1.33, 2.66 and 5.33 μg/ml): increased sensitivity

Cc1nnc(SCC2=C(C(=O)O)N3C(=O)[C@@H](NC(=O)Cn4cnnn4)[C@H]3SC2)s1 [cefazolin]
change of sensitivity of E. coli strain to panel compound (E. coli (MG1655); in the presence of 10 μg/ml vancomycin, cefazolin at 2.0 and 4.0 μg/ml): increased sensitivity | change of sensitivity of E. coli strain to panel compound (E. coli (MG1655); in the presence of 235 μg/ml sulfamethoxazole, cefazolin at 0.5, 1.0, 2.0 and 4.0 μg/ml): increased sensitivity

CO[C@@]1(NC(=O)Cc2cccs2)C(=O)N2C(C(=O)O)=C(COC(N)=O)CS[C@@H]21 [cefoxitin]
change of sensitivity of E. coli strain to panel compound (E. coli (MG1655); in the presence of 10 μg/ml vancomycin, cefoxitin at 0.75 and 1.5 μg/ml): increased sensitivity

NC(=O)c1cc[n+](CC2=C(C(=O)O)N3C(=O)[C@@H](NC(=O)[C@@H](c4ccccc4)S(=O)(=O)[O-])[C@H]3SC2)cc1 [cefsulodin]
change of sensitivity of E. coli strain to panel compound (E. coli (MG1655); in the presence of 235 μg/ml sulfamethoxazole, cefsulodin at 8 and 16 μg/ml): increased sensitivity

O=C(Cc1cccs1)N[C@@H]1C(=O)N2C(C(=O)[O-])=C(C[n+]3ccccc3)CS[C@H]12 [cephaloridine]
change of sensitivity of E. coli strain to panel compound (E. coli (MG1655); in the presence of 235 μg/ml sulfamethoxazole, cephaloridine at 0.75, 1.5, 3.0 and 6.0 μg/ml): increased sensitivity

CC(=O)OCC1=C(C(=O)O)N2C(=O)[C@@H](NC(=O)Cc3cccs3)[C@H]2SC1 [cephalothin]
change of sensitivity of E. coli strain to panel compound (E. coli (MG1655); in the presence of 10 μg/ml vancomycin, cephalothin at 10 and 20 μg/ml): increased sensitivity | change of sensitivity of E. coli strain to panel compound (E. coli (MG1655); in the presence of 235 μg/ml sulfamethoxazole, cephalothin at 5.0, 10 and 20 μg/ml): increased sensitivity | clustering in dendrogram of PM S-O-R response (FIG. 4) (E. coli MG1655): cluster

C/C=C/C/C=C/CCC(=O)[C@H]1O[C@H]1C(N)=O [cerulenin]
PM response pattern (fingerprint) of cells exposed to the antimicrobial (E. coli MG1655): more closely resembled the multiple target antimicrobials

O=C(N[C@H](CO)[C@H](O)c1ccc([N+](=O)[O-])cc1)C(Cl)Cl [chloramphenicol]
clustering in dendrogram of PM S-O-R response (FIG. 4) (E. coli MG1655): cluster

[Cl][Cr]([Cl])[Cl] [chromium chloride]
change of sensitivity of E. coli strain to panel compound (E. coli (MG1655); in the presence of 235 μg/ml sulfamethoxazole, chromium chloride at 200 and 400 μg/ml): increased sensitivity

[Cl][Co][Cl] [cobalt chloride]
change of sensitivity of E. coli strain to panel compound (E. coli (MG1655); in the presence of 235 μg/ml sulfamethoxazole, cobalt chloride 12 and 25 μg/ml): increased sensitivity

CC(=O)O[C@H]1C[C@@]2(C)[C@@H](C[C@@H](O)[C@H]3[C@@]4(C)CC[C@@H](O)[C@@H](C)[C@@H]4CC[C@@]32C)/C1=C(\CCC=C(C)C)C(=O)O [fusidic acid]
change of sensitivity of E. coli strain to panel compound (E. coli (MG1655); in the presence of 10 μg/ml vancomycin, fusidic acid at 200 and 400 μg/ml): increased sensitivity

CCn1cc(C(=O)O)c(=O)c2ccc(C)nc21 [nalidixic acid]
change of sensitivity of E. coli strain to panel compound (E. coli (MG1655); in the presence of 10 μg/ml vancomycin, nalidixic acid at 1.0, 2.0 and 4.0 μg/ml): increased sensitivity | clustering in dendrogram of PM S-O-R response (FIG. 4) (E. coli MG1655): did not cluster with the other two DNA gyrase inhibiting chemicals

[Cl][Ni][Cl] [nickel chloride]
change of sensitivity of E. coli strain to panel compound (E. coli (MG1655); in the presence of 235 μg/ml sulfamethoxazole, nickel chloride at 20 and 40 μg/ml): increased sensitivity

CO[C@@H]1[C@@H](OC(N)=O)[C@@H](O)[C@H](Oc2ccc3c(O)c(NC(=O)c4ccc(O)c(CC=C(C)C)c4)c(=O)oc3c2C)OC1(C)C [novobiocin]
change of sensitivity of E. coli strain to panel compound (E. coli (MG1655); in the presence of 10 μg/ml vancomycin, novobiocin at 33 and 66 μg/ml): increased sensitivity | change of sensitivity of E. coli strain to panel compound (E. coli (MG1655); in the presence of 235 μg/ml sulfamethoxazole, novobiocin at 66 and 133 μg/ml): increased resistance

CCn1cc(C(=O)O)c(=O)c2cc3c(cc21)OCO3 [oxolinic acid]
clustering in dendrogram of PM S-O-R response (FIG. 4) (E. coli MG1655): clustered

C[C@@H]1O[C@@H]1P(=O)(O)O [phosphomycin]
clustering in dendrogram of PM S-O-R response (FIG. 4) (E. coli MG1655): cluster

[H]/N=C(/N)N[C@H]1[C@H](O)[C@@H](O)[C@H](O[C@@H]2O[C@@H](C)[C@](O)(C=O)[C@H]2O[C@@H]2O[C@@H](CO)[C@H](O)[C@@H](O)[C@@H]2NC)[C@@H](N/C(N)=N\[H])[C@@H]1O [streptomycin]
clustering in dendrogram of PM S-O-R response (FIG. 4) (E. coli MG1655): cluster

Nc1ccc(S(=O)(=O)Nc2nccs2)cc1 [sulfathiazole]
PM response pattern (fingerprint) of cells exposed to the antimicrobial (E. coli MG1655): more closely resembled the multiple target antimicrobials

COc1cc(Cc2cnc(N)nc2N)cc(OC)c1OC [trimethoprim]
change of sensitivity of E. coli strain to panel compound (E. coli (MG1655); in the presence of 10 μg/ml vancomycin, trimethoprim at 0.17, 0.33, 0.67 and 1.3 ng/ml): increased sensitivity | change of sensitivity of E. coli strain to panel compound (E. coli (MG1655); in the presence of 235 μg/ml sulfamethoxazole, trimethoprim at 0.17, 0.33, 0.67 and 1.3 ng/ml): increased sensitivity

coumermycin
clustering in dendrogram of PM S-O-R response (FIG. 4) (E. coli MG1655): clustered

polymyxin B
PM response pattern (fingerprint) of cells exposed to the antimicrobial (E. coli MG1655): more closely resembled the multiple target antimicrobials
